Laboratory results taken from publication PMC7824033, “Flavones, Flavonols, and Glycosylated Derivatives—Impact on Candida albicans Growth and Virulence, Expression of CDR1 and ERG11, Cytotoxicity” (Pharmaceuticals, 2020).
Converted amounts (≈) assume the structure as drawn. “Also recorded” adds a separate entry of the source. Read-outs that look alike come from different tables or passages of the source.

Assays:
[1] = tested on: C. albicans 475/15 biofilm formation; assay: Inhibition of biofilm formation (crystal violet); format: cell-based, Candida albicans; settings: for antibiofilm activity: MIC and subMICs; for inhibition of biofilm formation: compound applied at MIC
Description: Potential of selected compounds to interfere with C. albicans 475/15 biofilm formation was investigated as previously described. Briefly, C. albicans 475/15 was incubated with serial dilution of the compounds (MIC and subMICs) in YPD medium, in 96-well microtiter plates with adhesive bottom (Sarstedt, Nümbrecht, Germany), at 37 °C for 24 h. After incubation, wells were washed twice with sterile PBS and methanol was added into each well. After fixation, methanol was discarded, and the plate was air dried. Formed biofilms were stained with 0.1% crystal violet (Bio-Merieux, Craponne, France) for 30 min. The plate was gently washed under the tap of water and air dried. The stain bound to the remaining biofilms was dissolved with ethanol (96%, Zorka, Šabac, Serbia). Absorbance was read on a Multiskan™ FC Microplate Photometer, Thermo Scientific™. The percentage of inhibition of biofilm formation was calculated by the formula:[(A620control − A620sample)/A620control] × 100

[2] = tested on: C. albicans biofilm; settings: C. albicans CAD1 biofilm; cited from earlier work
[3] = Cytotoxicity, Sulforhodamine B assay; settings: pig
Description: Preparation of PLP2 cell line was performed with freshly harvested porcine liver supplied from a local slaughter house. Tissues from the liver were washed in Hank’s balanced salt solution comprising 100 U/mL penicillin and 100 μg/mL streptomycin and split into 1 × 1 mm^3 explants. Some of the prepared explants were set in 25 cm^2 tissue flasks in Dulbecco’s modified Eagle’s medium (DMEM) with 10% fetal bovine serum (FBS), 2 mM nonessential amino acids, 100 U/mL penicillin, and […] streptomycin, and incubation was conducted at 37 °C with 5% CO2 in a humidified atmosphere. The fresh medium was added every 2 days. Cultivation of the cells was further conducted with direct observation by the phase contrast microscope every 2–3 days. Before confluence was achieved, cells were subcultured and seeded in 96-well plates at a density of 1.0 × 10^4 cells per well and cultivated in DMEM supplemented with 10% FBS, 100 U/mL penicillin, and 100 μg/mL streptomycin. Previously described Sulforhodamine B assay was used for the determination of cytotoxicity. The obtained results were defined as GI50 values corresponding to the compound concentration that inhibits 50% of the net cell growth. Ellipticine was used as a positive control.

[4] = tested on: C. albicans 13/15; assay: Microdilution assay, MIC and MFC; format: cell-based; settings: Candida albicans
Description: (§1) C. albicans was isolated from oral cavities of patients at ENT Clinic, Clinical Hospital Centre Zvezdara, Belgrade, Serbia after obtaining informed written consent and identified by using CHROMagar plates (Biomerieux, Craponne, France). Strains were maintained on Sabouraud Dextrose Agar (Merck, Darmstadt, Germany) and are deposited at the Mycological Laboratory, Department of Plant Physiology, Institute for Biological Research “Siniša Stanković”, National Institute of Republic of Serbia, University of Belgrade. The collection of samples was approved by the Ethical Committee (Office for Human Research Protection, Zvezdara University Medical Center, Belgrade, Serbia, document issued 26 October 2016).
(§2) Microdilution assay with some modification was used for determination of minimum inhibitory (MIC) and minimum fungicidal concentrations (MFC). Yeast cultures were adjusted to 1.0 × 10^5 CFU/per well with sterile PBS (Phosphate buffered saline, pH 7.4). The 96-well microtiter plates with serially diluted flavonoids (concentration range 0.3–75 µg/mL) in liquid broth were incubated at 37 °C for 24 h. After incubation, MIC and MFC were determined. The lowest concentrations that were not inducing microscopically observed growth were considered as MIC. For microscopic determination of growth, we used inverted microscope Nikon Eclipse TS2 (Amsterdam, Netherland) and examined the fungal growth in the wells of 96-well microtiter plates compared to the control (untreated yeast cells). MFC values were determined as concentrations without visible growth after serial sub-cultivation of 10 µL of samples at 37 °C for 24 h. Ketoconazole and amphotericin B (SigmaAldrich, Darmstadt, Germany) were used as an antifungal control. The tested flavonoids were obtained from Extrasynthese, Rhone, France.

[5] = tested on: C. albicans 475/15; assay: Microdilution assay, MIC and MFC; format: cell-based; settings: Candida albicans
Description: as §1, §2

[6] = tested on: C. albicans 10/15; assay: Microdilution assay, MIC and MFC; format: cell-based; settings: Candida albicans
Description: as §1, §2

[7] = tested on: C. albicans 527/14; assay: Microdilution assay, MIC and MFC; format: cell-based; settings: Candida albicans
Description: as §1, §2

[8] = tested on: Candida albicans; assay: Microdilution assay, MIC (strain not named); format: cell-based; settings: read-out: minimum inhibitory concentration (MIC)
Description: as §1, §2

[9] = tested on: C. albicans; settings: cited from earlier work
[10] = tested on: CDR1; assay: Expression of CDR1 (qPCR); format: cell-based, Candida albicans; settings: treatment with MIC
Description: (§3) Total RNA was isolated as described by Sanglard et al. with some modifications. C. albicans 475/15 was grown with agitation at 30 °C in YEPD until OD540 = 0.4. C. albicans cells were incubated with MIC of compounds in YEPD at 30 °C with agitation for 30 min. Cells were centrifuged (4600 rpm, 4 °C for 5 min (Rotanata 460 R, Hettich, Tuttlingen, Germany)) and the pellet was resuspended in 300 µL of RNA buffer (0.1 M Tris-HCl pH 7.5, 0.1M LiCl, 10mM EDTA, 0.5% SDS). The pellet was homogenized with 200 µL of DEPC treated glass beads and 300 µL of Phenol:Chloroform:Isoamyl Alcohol (Sigma-Aldrich, Darmstadt, Germany) in Precellys Evolution tissue homogenizer (Bertion instruments, Montigny-le-Bretonneux, France) at 4500 rpm for 5 s. After centrifugation (14,000 rpm, 4 °C, 1 min (Universal 32 R, Hettich, Tuttlingen, Germany)) 200 µL of supernatant was vortexed with 250 µL of Phenol:Chloroform:Isoamyl Alcohol for 10 s. Samples were centrifuged (14,000 rpm, 4 °C, 1 min) and 200 µL of supernatant was transferred to new tubes, 400 µL of ice-cold 99% ethanol was added to each tube, and they were kept on dry ice for 10 min. Samples were centrifuged (14,000 rpm, 4 °C, 2 min), pellet was washed with ethanol (70%), left to dry at room temperature, after which it was dissolved in 50 µL of DEPC treated water. Nanodrop (ND-1000, Witec AG, Sursee, Switzerland) was used for determination of concentration and purity of samples. RNA was stored at −80°C.
(§4) Amount of 10 µg RNA was incubated with 5 µL of DNAse buffer and 1 µL of DNAse at 37 °C for 30 min (DNA-free™ DNA Removal Kit, Ambion, Bleiswijk, Netherlands). After addition of DNAse inactivation reagent tubes were kept at room temperature with occasional vortexing for 5 min. Samples were centrifuged (14,000 rpm, 4°C, 2 min) and the concentration and quality of supernatant were analyzed on Nanodrop (ND-1000, Witec AG, Sursee, Switzerland).
(§5) Synthesis of cDNA was done with a Transcriptor High Fidelity cDNA synthesis kit (Roche). RNA (1 µg) was incubated with 60 µM random hexamer primers, in 11.4 µL of total sample volume, at 65 °C for 10 min. The mixture of Transcriptase reaction buffer 5×, Deoxynucleotide mix, DTT, Protector RNAse inhibitor, and Transcriptor High Fidelity Reverse Transcriptase was added to each tube according to manufacturer instructions. Synthesis of cDNA was completed by incubating the mixture at 50 °C for 30 min and 85 °C for 5 min (Peqstar thermocycler, Peqlab, Erlangen, Germany).
(§6) Wells of MicroAmp Fast 96-Well Reaction plate ((0.1 mL), Applied biosystems, Waltham, MA, USA) were incubated with 10 µL of mixture (cDNA, 2× MasterMix, primers, probe (Table 3), and water). Analysis was performed in StepOnePlus Real Time PCR system with relative standard curve method. Expression levels of CDR1 and ERG11 were normalized to expression of ACT1.

[11] = tested on: ERG11; assay: Expression of ERG11 (qPCR); format: cell-based, Candida albicans; settings: treatment with MIC
Description: as §3, §4, §5, §6

[12] = tested on: CDR1; settings: identical assay, previously published; cited from earlier work

## C[C@@H]1O[C@@H](Oc2c(-c3ccc(O)c(O)c3)oc3cc(O)cc(O)c3c2=O)[C@H](O)[C@H](O)[C@H]1O [Quercitrin, quercitrin]
[1]
  antibiofilm activity: lowest potential to reduce biofilm formation
  inhibition of biofilm formation: less than 50%
[2]
  antibiofilm activity: complete lack of activity
[3]
  GI50: 73 ± 3 µg/mL (≈ 163 µM)
[4]; 13/15
  MFC: 75 ± 3 µg/mL (≈ 167 µM)
  MIC: 37.5 ± 1 µg/mL (≈ 83.6 µM)
[5]; 475/15
  MFC: 75 ± 3 µg/mL (≈ 167 µM)
  MIC: 37.5 ± 2 µg/mL (≈ 83.6 µM)
[6]; 10/15
  MFC: 75 ± 3 µg/mL (≈ 167 µM)
  MIC: 37.5 ± 2 µg/mL (≈ 83.6 µM)
[7]; 527/14
  MFC: 75 ± 3 µg/mL (≈ 167 µM)
  MIC: 37.5 ± 2 µg/mL (≈ 83.6 µM)
[8]
  MIC: 37.5 µg/mL (≈ 83.6 µM)
[9]; C. albicans ATCC 10231, ref 17
  MIC: 100 µg/mL (≈ 223 µM)
[9]; C. albicans CAD1, clinical isolate
  MIC: > 512 µg/mL
[10]
  impact on CDR1 expression: downregulated

## C[C@@H]1O[C@@H](OC[C@H]2O[C@@H](Oc3c(-c4ccc(O)c(O)c4)oc4cc(O)cc(O)c4c3=O)[C@H](O)[C@@H](O)[C@@H]2O)[C@H](O)[C@H](O)[C@H]1O [Rutin, rutin]
[1]
  antibiofilm activity: lowest activity against biofilm formation
  inhibition of biofilm formation: less than 50%
[2]
  antibiofilm activity: lack of C. albicans CAD1 antibiofilm activity
[3]
  GI50: > 400 µg/mL
[4]; C. albicans 13/15, mean ± SD of three replicates, read-out: MFC
  MFC: 75 ± 2 µg/mL (≈ 123 µM)
[4]; C. albicans 13/15, mean ± SD of three replicates, read-out: MIC
  MIC: 37.5 ± 1 µg/mL (≈ 61.4 µM)
[5]; C. albicans 475/15, mean ± SD of three replicates, read-out: MFC
  MFC: 75 ± 1 µg/mL (≈ 123 µM)
[5]; C. albicans 475/15, mean ± SD of three replicates, read-out: MIC
  MIC: 37.5 ± 1 µg/mL (≈ 61.4 µM)
[6]; C. albicans 10/15, mean ± SD of three replicates, read-out: MFC
  MFC: 75 ± 2 µg/mL (≈ 123 µM)
[6]; C. albicans 10/15, mean ± SD of three replicates, read-out: MIC
  MIC: 37.5 ± 1 µg/mL (≈ 61.4 µM)
[7]; C. albicans 527/14, mean ± SD of three replicates, read-out: MFC
  MFC: 75 ± 1 µg/mL (≈ 123 µM)
[7]; C. albicans 527/14, mean ± SD of three replicates, read-out: MIC
  MIC: 37.5 ± 1 µg/mL (≈ 61.4 µM)
[8]; C. albicans, this study, strain not given
  MIC: 37.5 µg/mL (≈ 61.4 µM)
[9]; C. albicans ATCC 10231, ref 21
  MIC: 40 µg/mL (≈ 65.5 µM)
[9]; C. albicans ATCC 18804
  MIC: > 1000 µg/mL
[9]; C. albicans CA-1
  concentration necessary for growth inhibition: 1000 µg/mL
[11]
  impact on ERG11 expression (words): lower expression levels; also recorded: negative impact; also recorded: lowering ERG11 expression

## O=c1c(O[C@@H]2O[C@H](CO)[C@@H](O)[C@H](O)[C@H]2O)c(-c2ccc(O)cc2)oc2cc(O)cc(O)c12 [astragalin]
[12]
  impact on CDR1 expression: inhibitory impact
